pEC50, pIC50: −log10 of the molar value. Like-named read-outs stand apart in the source and are kept apart here.
Experiments:
[1] = molecular target: Human PDE11A4 (Homo sapiens, UniProt Q9HCR9); assay: Phosphodiesterase Assay (SPA); format: biochemical
[2] = molecular target: T1, human GABAA receptor (α1β2γ2) (Homo sapiens, UniProt P14867+P18507+P47870); assay: GABA Patch Clamp Assay (agonist, antagonist, PAM modes); format: cell-based
T1 construct: expressed in transfected cells
Excerpt: 151 GABA Patch Clamp Assay
152 Compound effects on the human GABAA recepto r (α1β2γ2), stably express ed in human embryonic
153 kidney (HEK) cells, were examined in three modes of action: agonist, antagonist and positive
154 allosteric modulation (PAM) modes. Chloride currents evoked by the activation of the GABAA
155 recepto r wer e reco rded in the whole- cell patch clamp configuration with the automated Qube384®
156 platform (Sophion Bioscience A/S, Baltorpvej, Denmark). The intracellular solution contained (in
157 mM): CsF 90, CsCl 50, MgCl2 2 EGTA 10, HEPES 10, pH adjusted to 7.2 with CsOH. The
158 extracellular solution contained (in mM): NaCl 138, KCl 5.3, CaCl2 5, MgCl2 0.49, HEPES 10,
160 osmolarity of the internal and external solutions were adjusted with sucrose to 300 mOsm and 305
162 Compounds were dissolved and initially diluted in dimethyl sulfoxide (DMSO), with a final
163 dilution in external sol ution to generate final working concent rations. The final DMSO
164 concentration in all experiments was 0.33% (v/v).
165 Cells and solutions were loaded into the Qube384 10X Qchip (10 recording wells per well, 384
166 wells per QChip). After whole-cell con figuration was achiev ed by negativ e pressure pulse, cells
167 were maintained at a holding potential of - 80 mV throughout the experiment. To avoid
168 desensitization and current rundown due to persistent activation of GABAA, a “stacked pipette”
169 approach was utilized to ensure only a brief exposure of the cells to GABA-containing solutions.
170 In this approach, the perfusion pipettes drew from two liquid sources, first from extracellular
171 solution (14 µL), and next from a GABA-containing solution (7 µL). When dispensed into the
173 extracellular solution. At the start of the experiment, a baseline GABAA cu rrent was established
174 for each well in response to activation by 40 µM GABA. Each subsequent test condition was
175 normalized ag ainst this baseline GABA cu rrent on a per w ell basis.
176 Agonist effects were measured by recording the current evoked by the test article in the absen ce
177 of GABA. Agonism (%) was calculated relative to the current produced by 40 µM GABA for
178 each well: [% Agonism = (Itest article / I 40µM GABA) * 100%].
179 Antagonist effects of test article were examined i n the presence of 40 µM GABA following a 4
180 min incubation in test article. Antagonism was calculated relative to the current produced by 40 […]
182 allosteric modulation (%) by test article was detected when current was enhanced relative to the […]
184 EC50/ IC 50 values were calculated by fitting concentration response curve data to a 4- p aram eter […]
190 determined using a four-parameter logistic fit. […]
193 response. An apparent KB value for antagonist activity was calculated using the following […]

T1 sequence (P14867 28-456): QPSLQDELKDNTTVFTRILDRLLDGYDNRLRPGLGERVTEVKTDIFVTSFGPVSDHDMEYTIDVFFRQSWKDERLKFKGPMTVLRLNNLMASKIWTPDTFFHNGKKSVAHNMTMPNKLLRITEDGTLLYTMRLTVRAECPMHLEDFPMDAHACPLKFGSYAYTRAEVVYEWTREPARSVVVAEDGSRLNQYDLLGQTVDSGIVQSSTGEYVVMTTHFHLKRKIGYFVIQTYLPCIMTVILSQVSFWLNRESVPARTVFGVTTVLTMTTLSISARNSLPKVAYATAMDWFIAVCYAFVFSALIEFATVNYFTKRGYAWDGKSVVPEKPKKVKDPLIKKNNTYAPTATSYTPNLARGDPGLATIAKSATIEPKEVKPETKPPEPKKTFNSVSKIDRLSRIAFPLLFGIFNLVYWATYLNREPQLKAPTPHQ
T1 sequence (P47870 25-512 limits assumed): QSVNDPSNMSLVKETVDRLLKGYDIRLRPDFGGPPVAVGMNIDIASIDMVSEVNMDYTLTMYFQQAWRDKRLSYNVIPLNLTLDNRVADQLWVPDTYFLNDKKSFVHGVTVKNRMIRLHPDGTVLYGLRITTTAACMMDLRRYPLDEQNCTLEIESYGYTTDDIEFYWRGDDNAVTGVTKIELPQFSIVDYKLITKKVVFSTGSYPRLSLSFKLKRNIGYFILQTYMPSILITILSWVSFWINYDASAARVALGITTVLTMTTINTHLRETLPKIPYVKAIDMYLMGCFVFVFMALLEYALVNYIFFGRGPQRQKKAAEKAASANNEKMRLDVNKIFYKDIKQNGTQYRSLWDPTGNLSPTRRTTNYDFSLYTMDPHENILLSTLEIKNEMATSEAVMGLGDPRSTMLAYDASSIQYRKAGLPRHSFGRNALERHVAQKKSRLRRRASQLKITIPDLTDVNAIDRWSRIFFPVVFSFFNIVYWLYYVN
T1 sequence (P18507 40-475): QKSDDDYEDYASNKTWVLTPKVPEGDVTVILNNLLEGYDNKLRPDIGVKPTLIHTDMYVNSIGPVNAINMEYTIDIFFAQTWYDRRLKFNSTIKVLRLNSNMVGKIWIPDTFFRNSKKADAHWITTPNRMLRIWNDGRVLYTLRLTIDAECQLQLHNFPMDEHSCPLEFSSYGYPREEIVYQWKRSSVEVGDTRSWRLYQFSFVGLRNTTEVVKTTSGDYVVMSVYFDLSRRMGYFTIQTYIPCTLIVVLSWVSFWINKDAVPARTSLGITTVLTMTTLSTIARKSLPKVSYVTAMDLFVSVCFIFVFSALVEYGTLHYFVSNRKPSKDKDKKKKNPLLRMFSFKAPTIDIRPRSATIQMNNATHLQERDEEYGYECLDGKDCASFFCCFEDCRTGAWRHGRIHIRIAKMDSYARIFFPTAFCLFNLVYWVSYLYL
Chain of Human PDE11A4 (Q9HCR9 whole entry): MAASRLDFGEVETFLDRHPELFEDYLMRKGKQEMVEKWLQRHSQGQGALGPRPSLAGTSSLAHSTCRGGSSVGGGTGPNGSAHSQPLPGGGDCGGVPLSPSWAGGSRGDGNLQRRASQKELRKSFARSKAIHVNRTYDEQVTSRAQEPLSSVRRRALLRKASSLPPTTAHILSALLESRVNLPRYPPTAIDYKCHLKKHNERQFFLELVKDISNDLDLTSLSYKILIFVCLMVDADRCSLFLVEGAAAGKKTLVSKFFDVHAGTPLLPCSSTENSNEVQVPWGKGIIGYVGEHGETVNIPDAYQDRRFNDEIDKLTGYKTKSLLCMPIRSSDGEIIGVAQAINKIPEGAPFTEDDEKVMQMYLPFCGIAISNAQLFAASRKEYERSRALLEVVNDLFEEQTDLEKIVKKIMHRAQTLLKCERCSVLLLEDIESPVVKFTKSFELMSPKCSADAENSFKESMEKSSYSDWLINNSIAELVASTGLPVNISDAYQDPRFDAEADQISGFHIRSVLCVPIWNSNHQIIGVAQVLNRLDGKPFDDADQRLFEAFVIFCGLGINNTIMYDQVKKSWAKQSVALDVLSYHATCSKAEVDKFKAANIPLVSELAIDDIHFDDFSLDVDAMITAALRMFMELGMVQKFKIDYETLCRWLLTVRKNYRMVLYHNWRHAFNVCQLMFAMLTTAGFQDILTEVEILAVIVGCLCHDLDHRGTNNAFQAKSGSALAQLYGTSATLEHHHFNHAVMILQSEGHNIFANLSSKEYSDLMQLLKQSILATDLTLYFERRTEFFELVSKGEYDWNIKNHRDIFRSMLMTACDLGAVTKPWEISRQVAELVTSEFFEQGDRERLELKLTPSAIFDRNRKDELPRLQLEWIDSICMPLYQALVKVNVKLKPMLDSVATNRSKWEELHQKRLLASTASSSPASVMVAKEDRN

## CCOc1cc(C)nc(N(CCOC)S(=O)(=O)c2ccc(NCc3c(F)cncc3F)nc2OC)n1 [Compound 1]
[1]
  pIC50: < 4.40
[2]
  pEC50: < 4.00
[2]; GABAa, 10μM
  %Activation@10μM: 0%
  inhibition at 10 µM: 4%
[2]; read-out: PAM EC50, GABAa, positive allosteric modulation mode
  pEC50: < 4.00
